# “And” between values parts separate entries of the source, which are not always exact repeats. Identical values can stand only once.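 The compound was tested at five concentrations on cells cultured in 96-well plates, with a 48-hour exposure period. The concentration for 50% growth inhibition is given as GI50. The concentration for full growth arrest is given as TGI.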
# Experiments:
# Assay in all cases: NCI-60 cell line screen, 48 h
# NCI-H23 lung = test system: NCI-H23 lung
# NCI-H226 lung = test system: NCI-H226 lung
# ACHN renal = test system: ACHN renal
# CAKI-1 renal = test system: CAKI-1 renal
# SNB-19 CNS = test system: SNB-19 CNS
# HOP-62 NSCLC = test system: HOP-62 NSCLC
# OVCAR-5 ovarian = test system: OVCAR-5 ovarian
# A498 renal = test system: A498 renal
# 786-0 renal = test system: 786-0 renal
# RXF 393 renal = test system: RXF 393 renal
SMILES,TGI (NCI-H23 lung),TGI (NCI-H226 lung),TGI (ACHN renal),TGI (CAKI-1 renal),TGI (SNB-19 CNS),TGI (HOP-62 NSCLC),TGI (OVCAR-5 ovarian),TGI (A498 renal),TGI (786-0 renal),TGI (RXF 393 renal),GI50 (NCI-H23 lung),GI50 (NCI-H226 lung),GI50 (ACHN renal),GI50 (CAKI-1 renal),GI50 (SNB-19 CNS),GI50 (HOP-62 NSCLC),GI50 (OVCAR-5 ovarian),GI50 (A498 renal),GI50 (786-0 renal),GI50 (RXF 393 renal)
COc1cc(/C=C2\[C@@H]3NC(Cc4c(OC)c(C)c(OC)c(OC)c43)C(=O)N2Cc2ccccc2)c(OC)c(C)c1OC,> 100 µM,> 100 µM,> 100 µM,89 µM,> 100 µM,> 100 µM,> 100 µM,> 100 µM,> 100 µM,72.8 µM,–,–,–,–,–,–,–,–,–,–
CC(C)[C@@H](C(=O)O[C@@H]1/C=C/C(=O)O[C@@H](C)CCC/C=C/[C@@H]2C[C@H](O)C[C@H]21)N(C)C,91.8 µM,36.4 µM,> 100 µM,42.8 µM,> 100 µM,> 100 µM,> 100 µM,7.97 µM,52.3 µM,44.1 µM,23.3 µM,9.21 µM,38.4 µM,11.9 µM,37 µM,22.3 µM,35.9 µM,2.54 µM,9.9 µM,7.33 µM
Clc1ccc2c(NC3CCC(N4CCCCC4)CC3)ccnc2c1 (stereo not given),> 100 µM,48.1 µM,> 100 µM,50.7 µM,> 100 µM,> 100 µM,> 100 µM,38.6 µM,41.7 µM,43.7 µM,–,–,–,–,–,–,–,–,–,–
C=CCc1c(O)c(C(=O)/C=C/c2ccc(Cl)cc2)c(OC)c2ccoc12,11.6 µM,2.97 µM,6.17 µM,11.6 µM,8.15 µM,5.76 µM,9.71 µM,13 µM,18.6 µM,3.6 µM,2.78 µM,1.52 µM,2.31 µM,2.61 µM,2.85 µM,2.31 µM,2.8 µM,2.77 µM,4.83 µM,1.72 µM
C[C@]12CC[C@H]3[C@@H](CC[C@]4(O)C[C@@H](O)CC[C@]34C=O)[C@@]1(O)CC[C@@H]2C1=CC(=O)OC1,1.12 µM,2.69 µM,1.49 µM,0.61 µM,4.87 µM,0.533 µM,3.57 µM,1.93 µM,> 100 µM,0.877 µM,–,–,–,–,–,–,–,–,–,–
Cc1c(C(=O)Nc2ccc(N3C[C@@H](C)O[C@@H](C)C3)nc2)cccc1-c1ccc(OC(F)(F)F)cc1,25.5 µM and 40.4 µM,31.9 µM and 40.8 µM,23.3 µM and 44.1 µM,26.3 µM and 23.3 µM,32 µM and > 100 µM,46.2 µM and 36.8 µM,42.7 µM and 48.9 µM,14 µM and 9.97 µM,21 µM and 30 µM,29.2 µM and 32.1 µM,5.98 µM and 12.4 µM,8.11 µM and 13.8 µM,5.6 µM and 14.4 µM,3.86 µM and 3.89 µM,7.85 µM and 21.3 µM,12.2 µM and 16.5 µM,15.7 µM and 19.6 µM,3.77 µM and 2.04 µM,3.61 µM and 5.77 µM,12.3 µM and 13.7 µM
CC1C(c2ccccc2)N(C)C(c2ccccc2)C(C)C1(O)c1ccccc1 (stereo not given),> 100 µM,> 100 µM,> 100 µM,> 100 µM,> 100 µM,> 100 µM,> 100 µM,> 100 µM,> 100 µM,> 100 µM,–,–,–,–,–,–,–,–,–,–
Oc1c(C(c2ccc(F)cc2)N2CCCCC2)ccc2cncnc12 (stereo not given),> 100 µM,19.4 µM,> 100 µM,13.4 µM,> 100 µM,> 100 µM,> 100 µM,9.43 µM,> 100 µM,12.2 µM,0.414 µM,1.19 µM,1.24 µM,0.899 µM,0.396 µM,0.513 µM,1.28 µM,1.46 µM,1.69 µM,0.416 µM
O=[N+]([O-])c1ccc2c(c1)C(N1CCN(CCO)CC1)Cc1ccc(F)cc1S2 (stereo not given),29 µM,23.1 µM,16.7 µM,26.3 µM,24.6 µM,43.8 µM,26.9 µM,25.8 µM,26.4 µM,4.73 µM,–,–,–,–,–,–,–,–,–,–
CC1Cc2c(Cl)ncnc2N(C)c2ccccc21 (stereo not given),10.9 µM,21.7 µM,> 100 µM,> 100 µM,> 100 µM,14.7 µM,> 100 µM,5.41 µM,11.5 µM,6.05 µM,2.82 µM,2.05 µM,3.79 µM,3.39 µM,4.72 µM,3.08 µM,6.02 µM,1.98 µM,3.23 µM,2.57 µM
C[C@]12CCC(=O)C=C1C[C@@H](O)[C@@H]1[C@@H]2CC[C@@]2(C)[C@H]1CC[C@]2(C)O,> 100 µM,> 100 µM,> 100 µM,> 100 µM,> 100 µM,> 100 µM,> 100 µM,> 100 µM,> 100 µM,> 100 µM,–,–,–,–,–,–,–,–,–,–
O=C(Nc1cccc([N+](=O)[O-])c1)c1cccc(C(=O)Nc2cccc([N+](=O)[O-])c2)c1,> 100 µM,> 100 µM,> 100 µM,> 100 µM,> 100 µM,> 70.5 µM,> 100 µM,79.5 µM,> 100 µM,38.8 µM,> 72.4 µM,> 100 µM,> 100 µM,> 100 µM,28.6 µM,21.9 µM,> 100 µM,20.2 µM,25.6 µM,14.7 µM
CCOC(=O)N1CCC(N=C2CSc3nnc(-c4cc(C(F)(F)F)cc(C(F)(F)F)c4)n3N2)CC1,8.37 µM,5.02 µM,5.99 µM,5.97 µM,11.9 µM,4.03 µM,4 µM,5.52 µM,5.21 µM,3.08 µM,2.66 µM,2.16 µM,2.53 µM,2.04 µM,3.14 µM,2.17 µM,1.95 µM,1.94 µM,2.18 µM,1.57 µM
COc1cc2c(cc1OC)C(Cl)C(c1ccc(Br)cc1)=C2Cl (stereo not given),23.8 µM,> 55.1 µM,21.3 µM,32 µM,32 µM,35.4 µM,31 µM,33.1 µM,16.7 µM,24.6 µM,–,–,–,–,–,–,–,–,–,–
CC1(C)OCC2OC(n3cnc4c(N)nc(Cl)nc43)C(OS(C)(=O)=O)C2O1 (stereo not given),> 100 µM,> 100 µM,> 100 µM,> 100 µM,> 100 µM,> 100 µM,> 100 µM,> 100 µM,> 100 µM,> 100 µM,–,–,–,–,–,–,–,–,–,–

# — PubChem BioAssay (NCI)
